Assay results reported in PubChem BioAssay (NCI).
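48-hour exposure; five concentrations; linearly interpolated endpoints. TGI: concentration producing complete growth inhibition.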

Columns and labels:
Assay in all cases: inhibition of tumour cell growth, NCI panel, 48 h
CCRF-CEM leukemia = tested on: CCRF-CEM leukemia
OVCAR-5 ovarian = tested on: OVCAR-5 ovarian
TK-10 renal = tested on: TK-10 renal
ACHN renal = tested on: ACHN renal
CAKI-1 renal = tested on: CAKI-1 renal
KM12 colon = tested on: KM12 colon
OVCAR-4 ovarian = tested on: OVCAR-4 ovarian
SF-268 CNS = tested on: SF-268 CNS
NCI-H460 lung = tested on: NCI-H460 lung
U251 CNS = tested on: U251 CNS
SF-295 CNS = tested on: SF-295 CNS
MDA-MB-435 = tested on: MDA-MB-435
SK-MEL-2 melanoma = tested on: SK-MEL-2 melanoma
SK-MEL-28 melanoma = tested on: SK-MEL-28 melanoma
HOP-92 NSCLC = tested on: HOP-92 NSCLC
HOP-62 NSCLC = tested on: HOP-62 NSCLC
MDA-MB-231 breast = tested on: MDA-MB-231 breast
A549 NSCLC = tested on: A549 NSCLC
K-562 leukemia = tested on: K-562 leukemia
PC-3 prostate = tested on: PC-3 prostate
DU-145 prostate = tested on: DU-145 prostate
RPMI-8226 leukemia = tested on: RPMI-8226 leukemia
HCT-15 colon = tested on: HCT-15 colon
UACC-257 melanoma = tested on: UACC-257 melanoma
SK-OV-3 ovarian = tested on: SK-OV-3 ovarian
SNB-75 CNS = tested on: SNB-75 CNS
SNB-19 CNS = tested on: SNB-19 CNS
MDA-N = tested on: MDA-N
MALME-3M melanoma = tested on: MALME-3M melanoma
HCT-116 colon = tested on: HCT-116 colon
MOLT-4 leukemia = tested on: MOLT-4 leukemia
T-47D breast = tested on: T-47D breast
NCI-H522 lung = tested on: NCI-H522 lung
BT-549 breast = tested on: BT-549 breast
SK-MEL-5 melanoma = tested on: SK-MEL-5 melanoma
HT29 colon = tested on: HT29 colon
SN12C renal = tested on: SN12C renal
786-0 renal = tested on: 786-0 renal
COLO 205 colon = tested on: COLO 205 colon
MCF7 breast = tested on: MCF7 breast
UACC-62 melanoma = tested on: UACC-62 melanoma
EKVX NSCLC = tested on: EKVX NSCLC
NCI-H23 lung = tested on: NCI-H23 lung
OVCAR-3 ovarian = tested on: OVCAR-3 ovarian
NCI/ADR-RES ovarian = tested on: NCI/ADR-RES ovarian
A498 renal = tested on: A498 renal
UO-31 renal = tested on: UO-31 renal
M14 melanoma = tested on: M14 melanoma
HCC-2998 colon = tested on: HCC-2998 colon
OVCAR-8 ovarian = tested on: OVCAR-8 ovarian
SW-620 colon = tested on: SW-620 colon
RXF 393 renal = tested on: RXF 393 renal
LOX IMVI melanoma = tested on: LOX IMVI melanoma
NCI-H226 lung = tested on: NCI-H226 lung
IGROV1 ovarian = tested on: IGROV1 ovarian
SR leukemia = tested on: SR leukemia
HL-60(TB) leukemia = tested on: HL-60(TB) leukemia
SF-539 CNS = tested on: SF-539 CNS

Measured: TGI

COC(=O)C1=C(CCCCO[Si](C)(C)C(C)(C)C)NC(=O)N2[C@@H](CCOCc3ccccc3)CC[C@H]12
52.1 µM: MDA-MB-231 breast
30.9 µM: 786-0 renal
43.9 µM: HCT-15 colon
79.4 µM: M14 melanoma
47.3 µM: MALME-3M melanoma
42.4 µM: NCI/ADR-RES ovarian
44.2 µM: KM12 colon
75.8 µM: PC-3 prostate
28.2 µM: U251 CNS
34.4 µM: HOP-92 NSCLC
24.6 µM: HCT-116 colon
35.8 µM: SK-MEL-2 melanoma
22.2 µM: SK-MEL-5 melanoma
30.1 µM: OVCAR-3 ovarian
51 µM: BT-549 breast
49.9 µM: MDA-N
48.2 µM: NCI-H522 lung
35.1 µM: HT29 colon
32.4 µM: COLO 205 colon
78.9 µM: HCC-2998 colon
51.9 µM: CCRF-CEM leukemia
77.7 µM: A549 NSCLC
92.9 µM: CAKI-1 renal
56.2 µM: UO-31 renal
65.2 µM: HOP-62 NSCLC
32.7 µM: SN12C renal
67.9 µM: NCI-H23 lung
not listed: OVCAR-8 ovarian | SW-620 colon | RXF 393 renal | LOX IMVI melanoma | NCI-H226 lung | IGROV1 ovarian | SR leukemia | HL-60(TB) leukemia | SF-539 CNS
> 100 µM: all other assays above

O=c1cc(N=Nc2ccc(O)cc2)[nH]c(=O)[nH]1
89.9 µM: SNB-75 CNS
89.2 µM: MALME-3M melanoma
not listed: CCRF-CEM leukemia | T-47D breast
> 100 µM: all other assays above
